# According to US20170000749A1, “Methods for Treating Cognitive Disorders Using Inhibitors of Histone Deacetylase” (Forum Pharmaceuticals, Inc., priority 2008, published 2017):
# Target: one or more of HDAC-1, HDAC-2, HDAC-3, HDAC-4, HDAC-5, HDAC-6, HDAC-7, HDAC-8, HDAC-9, HDAC-10 and HDAC-11
# Test: Inhibition of Histone Deacetylase Enzymatic Activity (Boc-Lys(Ac)-AMC substrate, Fluor-de-Lys developer)
# Assay type: biochemical
# Settings: Table 8; read-out: HDAC Inhibition (IC50 μM) HDAC Enzyme
# Protocol: The following protocol is used to assay the compounds of the disclosure.
# The mixture is pre-incubated for 5 minutes at room temperature. The reaction is started by bringing the temperature to 37° C. and adding 16 μl substrate. Total reaction volume is 50 μl.
# In the Tables 8, 9 and 10, A≦0.05 μM; 0.05 μM<B≦0.1 μM; 0.1 μM<C≦1 μM; and 1 μM<D≦10 μM.
row,IC50 [µM],Molecule
1,0.1 to 1,CN1CCN(C2=Nc3cc(C(=O)NO)ccc3Oc3ccccc32)CC1
2,1 to 10,"CN(O)C(=O)c1ccc(C2=Nc3ccccc3N(C3CC3)c3ccccc32)cc1 [(Z)-4-(5-cyclopropyl-5H-dibenzo[b,e][1,4]diazepin-11-yl)-N-hydroxy-N-methylbenzamide]"
3,1 to 10,"O=C(NO)c1ccc(C2=Nc3ccccc3N(CC3CC3)c3ncccc32)cc1 [(Z)-4-(11-(cyclopropylmethyl)-11H-benzo[b]pyrido[2,3-e][1,4]diazepin-5-yl)-N-hydroxybenzamide]"
4,0.1 to 1,"O=C(NO)c1ccc(C2=Nc3ccccc3Sc3ccccc32)cc1 [(Z)-4-(dibenzo[b,f][1,4]thiazepin-11-yl)-N-hydroxybenzamide]"
5,0.1 to 1,"O=C(NO)c1ccc(C2=Nc3ccccc3N(CCN3CCOCC3)c3ccccc32)cc1 [(Z)-N-hydroxy-4-(5-(2-morpholinoethyl)-5H-dibenzo[b,e][1,4]diazepin-11-yl)benzamide]"
6,0.1 to 1,"O=C(NO)c1ccc2c(c1)N=C(c1ccncc1)c1ccccc1O2 [(Z)-N-hydroxy-11-(pyridin-4-yl)dibenzo[b,f][1,4]oxazepine-8-carboxamide]"

# Same assay, conditions: Table 10; read-out: HDAC Inhibition (IC50 μM) HDAC Enzyme
row,IC50 [µM],Molecule
1,< 0.05,"O=C(NO)c1ccc(CN2c3ccccc3CCc3ccccc32)cc1 [4-((10,11-dihydro-5H-dibenzo[b,f]azepin-5-yl)methyl)-N-hydroxybenzamide]"
2,< 0.05,O=C(NO)c1ccc(CNC(c2ccccc2)c2ccccc2)cc1 [4-((benzhydrylamino)methyl)-N-hydroxybenzamide]
3,0.1 to 1,O=C(NO)c1ccc(CN(c2ccccc2)c2ccccc2)cc1 [4-((diphenylamino)methyl)-N-hydroxybenzamide]
4,< 0.05,"O=C(NO)c1ccc(CN2Cc3ccccc3Oc3ccccc32)cc1 [4-(dibenzo[b,f][1,4]oxazepin-10(11H)-ylmethyl)-N-hydroxybenzamide]"
5,0.1 to 1,O=C(NO)c1cnc(N2CCC[C@H]2c2nc3ccccc3[nH]2)nc1 [(S)-2-(2-(1H-benzo[d]imidazol-2-yl)pyrrolidin-1-yl)-N-hydroxypyrimidine-5-carboxamide]
6,1 to 10,"O=C(CN1c2ccccc2C=Cc2ccccc21)NO [(Z)-2-(5H-dibenzo[b,f]azepin-5-yl)-N-hydroxyacetamide]"
7,0.1 to 1,"O=C(NO)c1cccc(CN2c3ccccc3C=Cc3ccccc32)c1 [(Z)-3-((5H-dibenzo[b,f]azepin-5-yl)methyl)-N-hydroxybenzamide]"
8,0.1 to 1,"O=C(NO)c1cnc(N2C[C@H]3C[C@@]3(c3ccccc3)C2)nc1 [N-hydroxy-2-((1R,5S)-1-phenyl-3-azabicyclo[3.1.0]hexan-3-yl)pyrimidine-5-carboxamide]"
9,1 to 10,"CN1CCc2[nH]c3ccc(C(=O)NO)cc3c2C1 [N-hydroxy-2-methyl-2,3,4,5-tetrahydro-1H-pyrido[4,3-b]indole-8-carboxamide]"
10,0.1 to 1,O=C(NO)c1ccc(Cn2c(-c3ccccc3)cc3ccccc32)cc1 [N-hydroxy-4-((2-phenyl-1H-indol-1-yl)methyl)benzamide]
11,1 to 10,"O=C(NO)c1cc2c(cn1)[nH]c1ccccc12 [N-hydroxy-9H-pyrido[3,4-b]indole-3-carboxamide]"
12,< 0.05,"O=CN(O)CCCCCCN1C(=O)c2ccccc2Oc2ccccc21 [N-hydroxy-N-(6-(11-oxodibenzo[b,f][1,4]oxazepin-10(11H)-yl)hexyl)formamide]"
13,0.1 to 1,"(Z)-N-(5H-dibenzo[b,f]azepin-5-yl)methyl)benzyl)-N-hydroxyformamide"

# Continued, molecule first:
row,Molecule,IC50 [µM]
1,O=C(NO)c1ccc(OCCN2C(=O)c3ccccc3Oc3ccccc32)cc1Cl,1 to 10
2,O=C(NO)c1ccc(OCCN2C(=O)c3ccccc3Oc3ccccc32)cc1F,0.05 to 0.1
3,O=C(C=C1c2ccccc2C=Cc2ccccc21)NO,0.1 to 1
4,O=C(C=C1c2ccccc2CCc2ccccc21)NO,1 to 10
5,O=C(NO)c1cnc(NC2c3ccccc3CCc3ccccc32)nc1,< 0.05
6,O=C(NO)c1cn2c(n1)sc1ccccc12,0.1 to 1
7,O=C(NO)c1ccc(COC2c3ccccc3CCc3ccccc32)cc1,0.1 to 1
8,O=C(NO)c1cccc(COC2c3ccccc3CCc3ccccc32)c1,0.1 to 1
9,O=C(NO)c1cccc(CNC2c3ccccc3CCc3ccccc32)c1,0.1 to 1
10,O=C(NO)c1cnc(N2C[C@H]3C[C@@]3(c3cccc(C(F)(F)F)c3)C2)nc1,0.1 to 1
11,O=C(NO)c1cnc(N2C[C@H]3C[C@@]3(c3ccc(C(F)(F)F)cc3)C2)nc1,0.1 to 1
12,"O=C(NO)c1cnc(N2C[C@H]3C[C@@]3(c3ccc(Cl)c(Cl)c3)C2)nc1 [2-((1R,5S)-1-(3,4-dichlorophenyl)-3-azabicyclo[3.1.0]hexan-3-yl)-N-hydroxypyrimidine-5-carboxamide]",0.1 to 1
13,"O=C(NO)c1cnc(N2C[C@@H]3C[C@]3(c3ccc(Cl)c(Cl)c3)C2)nc1 [2-((1S,5R)-1-(3,4-dichlorophenyl)-3-azabicyclo[3.1.0]hexan-3-yl)-N-hydroxypyrimidine-5-carboxamide]",0.1 to 1
14,O=C(NO)c1cnc(NC(c2ccc(F)cc2)c2ccc(F)cc2)nc1 [2-(bis(4-fluorophenyl)methylamino)-N-hydroxypyrimidine-5-carboxamide],< 0.05
15,O=C(NO)c1cccc(CN2c3ccccc3Sc3ccccc32)c1 [3-((10H-phenothiazin-10-yl)methyl)-N-hydroxybenzamide],0.1 to 1
16,O=C(NO)c1cccc(CN2c3ccccc3Oc3ccccc32)c1 [3-((10H-phenoxazin-10-yl)methyl)-N-hydroxybenzamide],1 to 10
17,O=C(NO)c1cccc(CN(c2ccccc2)c2ccccc2)c1 [3-((diphenylamino)methyl)-N-hydroxybenzamide],1 to 10
18,"O=C(CCCN1C(=O)c2cccnc2N(C2CC2)c2ccccc21)NO [4-(11-cyclopropyl-5-oxo-5H-benzo[b]pyrido[2,3-e][1,4]diazepin-6(11H)-yl)-N-hydroxybutanamide]",1 to 10
19,"O=C(NO)c1ccc(Cn2c3c(c4ccccc42)CCCCCC3)cc1 [4-((6,7,8,9,10,11-hexahydro-5H-cycloocta[b]indol-5-yl)methyl)-N-hydroxybenzamide]",0.1 to 1
20,"O=C(NO)c1ccc(CNC2c3ccccc3COc3ccccc32)cc1 (stereo not shown) [4-((6,11-dihydrodibenzo[b,e]oxepin-11-ylamino)methyl)-N-hydroxybenzamide]",0.1 to 1
21,"O=C1CN=C(c2ccc(C(=O)NO)cc2)c2cc(Br)sc2N1 [(Z)-4-(7-bromo-2-oxo-2,3-dihydro-1H-thieno[2,3-e][1,4]diazepin-5-yl)-N-hydroxybenzamide]",0.1 to 1
